Results from patent US7709004B2, “Method of producing an HIV-1 immune response” (Bionor Immuno AS, priority 1999, dated 2010).
Bridge positions count the residues as written; N and C are the ends. Ends that are not written are not given here. I, II: the chains in the order shown.

Test system: NMFI female mice
Assay: toxicity of the dipeptide by injection to mice
Assay type: in vivo
Conditions: 100 μg per kg bodyweight, test solution 4 mg/ml in 0.9% NaCl
Protocol: The dipeptide of Example 13 was diluted in 0.9% NaCl) to a test solution concentration of 4 mg/ml. The peptide was administered by injection to NMFI female mice in a dose of 100 μg per kg bodyweight.

## I: WIIPGLNPLVGGGKLYSPTSILCG-NH2 / II: KALGPGATLQTPWTACQGVG-NH2 (disulfide I:23-II:16) [Example 13]
  toxicological effects: No toxicological effects were observed
